Measurements: patent US4431807A, “4-Methyl-5-(unsubstituted and substituted phenoxy)-6-methoxy-8-(aminoalkylamino)quinolines” (priority 1981, dated 1984)

Key:
Plasmodium cynomolgi = test: Radical curative (tissue schizonticidal) test, SEATO, P. cynomolgi, rhesus monkey; type: in vivo, Plasmodium cynomolgi (strain B) in Indian rhesus monkeys
Method: Radical Curative Test in Rhesus Monkeys, SEATO Medical Research Laboratory, Bangkok, John Brown/Richard Andre
This test is designed to evaluate the tissue schizonticidal (radical curative) activity of test compounds. Well-conditioned Indian rhesus monkeys of either sex weighing 2-4 Kg are utilized. Plasmodium cynomolgi (strain B) sporozoites are prepared by grinding heavily infected Anopheles dirus salivary glands in 1:1 monkey serum-saline vehicle.
Monkeys are infected by I.V. injection of 10^6 freshly isolated P. cynomolgi sporozoites on day 0. A rapidly rising parasitemia develops after a 7-9 day prepatent period, and administration of the test drug is initiated when the rising parasite count exceeds 5000 per mm^3 (typically day 10-12). Test drugs are administered orally (by nasogastric intubation) once daily for 7 consecutive days in aqueous solution or, if insoluble, in suspension in 0.3% methylcellulose solution. Chloroquine diphosphate (3.1 mg/kg base/kg orally per day) is always administered concurrently with the test drug for 7 days to eliminate blood schizonts. Thus any tissue schizonticidal activity of the test drug will always be apparent even if it lacks blood schizonticidal activity.
A vehicle control monkey and a positive drug control (primaquine) monkey are included in each group of inoculated monkeys.
The effect of the test drug is determined by counting blood parasites. Parasite counts are made daily through day 20, and every two days thereafter. Initially a clearance of blood parasites is observed due to the blood schizonticidal action of chloroquine. […] If there is no relapse within 20 days of the initial clearance of parasitemia, the monkey is splenectomized and its parasitemia followed for an additional 30 days. If there is no relapse within this period, the experiment is terminated and the monkey is considered "cured".
Primaquine diphosphate cures over 90% of monkeys in this test system when administered at a dose of 1.3 mg/kg of salt per day for 7 days ([…]) in combination with chloroquine.
(§1) The antimalarial activity data acquired by the two test procedures described above are listed in Tables 2 and 3 for the compounds of this invention. In Table 4, the most promising compound of the series, compound 1, is compared directly with primaquine together with some additional test data for compound 1 compared to primaquine. In all the work reported herein primaquine is used in the form of the diphosphate salt. The test data are expressed in the form of the number of cures at a given dose level. Extension of life (mean survival time) relative to the controls is noted in the Rane mouse test; if the mean survival time is extended seven or more days, the compound is considered to be active.
The Molar Primaquine Index is useful in the radical curative test (Table II) as a gauge of the efficacy of a candidate drug relative to primaquine.

[1] = Acute oral toxicity, rats
[2] = Acute oral toxicity, guinea pigs
Plasmodium berghei = test: Blood schizonticidal (suppressive) test, Rane mouse test, P. berghei; type: in vivo, Plasmodium berghei KBG 173 in ICR/HA Swiss mice
Source text: Blood Schizonticidal Test (Mouse), University of Miami, Rane (Suppressive)
This system is based on comparisons of responses to test compounds by Plasmodium berghei KBG 173 malaria in mice as expressed in mean survival times and the mean survival times of untreated controls. Thus, compounds noted as active produce increases in the survival times of the treated animals that are significant when compared with the survival times of untreated controls. Since an established disease is less sensitive to treatment than a disease in the early stages of development, treatment is withheld until the parasitemia is relatively high in order to insure a more reliable assay of activity and the selection of appropriate compounds for intensive preclinical studies.
Utilizing young ICR/HA Swiss mice and a standard inoculum of Plasmodium berghei KBG 173, it is possible to produce a uniform disease fatal to 100% of untreated animals within 6 to 8 days with a mean survival time of 6.2 days. Test animals weigh from 18 to 22 grams but weight variations in any given experimental or control group are confined to 2-3 grams. All animals in any given test are approximately of the same age. Animals on test are housed in metal-topped plastic cages, given a standard laboratory diet and water ad libitum.
Test animals receive an intraperitoneal injection of 0.5 ml of 1:100 dilution of heparinized heart's blood with a minimum of 90% parasitized cells (4×10^7 cells), drawn from donor mice infected one week earlier with Plasmodium berghei. The donor stran is maintained by weekly passages in separate groups of mice inoculated with a 0.5 ml of 1:500 dilution of heparinized heart's blood.
Test compounds are administered after dissolution or suspension in peanut oil. A single dose is given subcutaneously 72 hours after the mice are infected with Plasmodium berghei. At this time a 10-15 percent parasitemia has developed; the disease is well established but has not produced sufficient debility to alter the response of the host to toxic effects of the drug on test. Since treatment is withheld for three days to permit the infection to become well established and death occurs in untreated controls within 6-8 days, it is believed that this system presents a candidate compound with the maximum challenge. In order to check factors such as changes in the infectivity of Plasmodium berghei or in the susceptibility of the host or to detect technical errors, a group of infected animals treated with pyrimethamine at dose levels producing definite increases in survival time is included as a positive control in every experiment.
In each experiment test compounds are administered in graded doses. […] However, if an active drug is toxic for the host, its toxicity may become a limiting factor; continued increases in dose levels also increase the toxic effects and may result in the diminution of survival times. Deaths prior to the sixth day, when untreated controls begin to die, are regarded as non-parasitic and become the basis for toxicity evaluations. Treated animals are kept under observation for 60 days. Survivors at the end of this period of time are considered as cured.
An increase of 100% in mean survival time is considered the minimum effective response for a candidate compound. In calculating mean survival time, toxic deaths and 60 day survivors are not included.
as §1, with “Extension of life (mean survival time) relative to the controls is noted in the Rane mouse test; if the mean survival time is extended seven or more days, the compound is considered to be active.” left out

P. cynomolgi = test: SEATO suppressive test, P. cynomolgi, rhesus monkey (parasitized blood inoculation, no chloroquine); type: in vivo, P. cynomolgi in rhesus monkey
Method: Equally significant is the suppressive activity comparison (Part A-2) in the Rhesus monkey. This test differs from the SEATO radical curative test primarily in that parasitemia is induced by intravenous inoculation of parasitized blood (rather than sporozoites) and that chloroquine is not co-administered with the test drug. […] On the other hand, compound 1 is curative at doses down to 1.0 mg/kg/day.

[3] = 160 mg/kg × 1, s.c., five mice, Table III
[4] = 320 mg/kg × 1, s.c., five mice, Table III
[5] = 640 mg/kg × 1, s.c., five mice, Table III

**Q.** With COc1cc(NC(C)CCCN)c2nccc(C)c2c1Oc1cccc(C(F)(F)F)c1.O=C(O)CCC(=O)O (stereo not drawn) [Compound 1, 8-(4-Amino-1-methylbutylamino)-6-methoxy-4-methyl-5-(3-trifluoromethylphenoxy)quinoline Succinate] as the molecule, how does the “% curative (radical curative)” value (Plasmodium cynomolgi; 0.316 mg/kg/day) read?
**A.** Its value is 100%.

**Q.** What about the “Radical curative activity relative to primaquine” value (Plasmodium cynomolgi; in words) of the same molecule?
**A.** The value was “markedly superior to primaquine”.

**Q.** What about the “Molar Primaquine Index CD 100” value (Plasmodium cynomolgi; primaquine CD100 dose / drug CD100 dose, in moles) of the same molecule?
**A.** Its value is 4.8.

**Q.** And the “LD50 ratio Compound 1/Primaquine” value ([1]; rats, female)?
**A.** The value was 2.76.

**Q.** And the “LD50 ratio Compound 1/Primaquine” value ([1]; rats, male)?
**A.** The value was 1.46.

**Q.** And the “LD50 ratio Compound 1/Primaquine” value ([2]; guinea pigs, male)?
**A.** Its value is 3.22.

**Q.** And the Extension of survival (Plasmodium berghei; 5 mg/kg salt, s.c., Table IV A-1)?
**A.** Its Extension of survival is 7 days.

**Q.** What about the “Cures (60 days survival)” value (Plasmodium berghei; 5 mg/kg × 1, s.c., five mice, Table III) of the same molecule?
**A.** Its value is 1C.

**Q.** What about the “Cures (60 days survival)” value (Plasmodium berghei; 10 mg/kg × 1, s.c., five mice, Table III) of the same molecule?
**A.** Its value is 3C.

**Q.** And the “Cures (60 days survival)” value (Plasmodium berghei; 20 mg/kg × 1, s.c., five mice, Table III)?
**A.** Its value is 5C.

**Q.** And the “Cures (60 days survival)” value (Plasmodium berghei; 40 mg/kg × 1, s.c., five mice, Table III)?
**A.** The value was 5C.

**Q.** And the “Cures (60 days survival)” value (Plasmodium berghei; 80 mg/kg × 1, s.c., five mice, Table III)?
**A.** Its value is 5C.

**Q.** What about the “Cures (60 days survival)” value (Plasmodium berghei; [3]) of the same molecule?
**A.** The value was 5C.

**Q.** What about the “Cures (60 days survival)” value (Plasmodium berghei; [4]) of the same molecule?
**A.** Its value is 5C.

**Q.** What about the Toxic deaths (Plasmodium berghei; 640 mg/kg salt, s.c., Table IV A-1) of the same molecule?
**A.** The Toxic deaths was 4T.

**Q.** And the “Cures (60 days survival)” value (Plasmodium berghei; [5])?
**A.** Its value is 1C.

**Q.** What about the Toxic (Plasmodium berghei; [5]) of the same molecule?
**A.** The Toxic was 4T.

**Q.** And the minimal effective dose (Plasmodium berghei; Plasmodium berghei, sc, single dose, read-out: Curative dose, suppressive test)?
**A.** Its minimal effective dose is 10 mg/kg.

**Q.** And the minimal effective dose (P. cynomolgi; Plasmodium cynomolgi, in Macaca mulatta, po, curative at doses down to, read-out: Lowest curative dose, suppressive test in rhesus)?
**A.** The minimal effective dose was 1 mg/kg/day.

**Q.** Which Radical curative activity (Plasmodium cynomolgi; 0.316 mg/kg/day) does the source give for COc1cc(NC(C)CCCN)c2ncccc2c1 (stereo not drawn) [Primaquine Diphosphate, 8-((4-amino-1-methylbutyl)amino)-6-methoxy-quinoline, reference compound] here?
**A.** The Radical curative activity was “inactive”.

**Q.** What about the “Radical curative test, cures” value (Plasmodium cynomolgi; 1.0 mg/kg salt, oral, × 7 days, Table IV B-1) of the same molecule?
**A.** Its value is 1/2.

**Q.** And the Monkeys cured (Plasmodium cynomolgi; 1.3 mg/kg of salt per day for 7 days (1.0 mg/kg free base) with chloroquine)?
**A.** The Monkeys cured was “over 90%”.

**Q.** And the LD50 ([1]; rat, in vivo, po)?
**A.** Its LD50 is 224 mg/kg.

**Q.** What about the “Acute Oral LD50” value ([1]; rats, male) of the same molecule?
**A.** The value was 177 mg/kg.

**Q.** And the LD50 ([2]; guinea pig, in vivo, po)?
**A.** Its LD50 is 54 mg/kg.

**Q.** What about the “Extension of survival relative to controls” value (Plasmodium berghei; 80 mg/kg × 1, s.c., Table III) of the same molecule?
**A.** Its value is 9 days.

**Q.** What about the Extension of survival (Plasmodium berghei; 160 mg/kg salt, s.c., Table IV A-1) of the same molecule?
**A.** The Extension of survival was 9 days.

**Q.** What about the “Extension of survival relative to controls” value (Plasmodium berghei; 160 mg/kg × 1, s.c., Table III) of the same molecule?
**A.** Its value is 9 days.

**Q.** And the “Suppressive activity (active/inactive)” value (Plasmodium berghei; [3])?
**A.** The value was “A (Active, 7 Days or more estension of survival relative to controls.)”.

**Q.** And the Toxic (Plasmodium berghei; [3])?
**A.** Its Toxic is 2T.

**Q.** What about the Toxic (Plasmodium berghei; [4]) of the same molecule?
**A.** The Toxic was 5T.

**Q.** And the Toxic (Plasmodium berghei; [5])?
**A.** Its Toxic is 5T.

**Q.** And the “Cures, Rane mouse test” value (Plasmodium berghei; all doses, s.c., Table IV A-1)?
**A.** The value was “No Cures”.

**Q.** What about the “Toxicity and curative activity, Rane mouse test” value (Plasmodium berghei; any dose level) of the same molecule?
**A.** The value was “toxic and non-curative at any dose level”.

**Q.** And the “Cures, suppressive test in rhesus” value (P. cynomolgi; all doses, oral, × 7 days)?
**A.** The value was “No Cures”.

**Q.** And the “Suppressive activity in the rhesus” value (P. cynomolgi; in words)?
**A.** The value was “failed to clear the blood schizonts completely”.
